target: T1, rat adrenergic α1A receptor (Rattus norvegicus, UniProt P43140); test: Adrenergic α1A radioligand binding ([3H]Prazosin); details: read-out: Adrenergic (0.1 μM) a1A, percent inhibition of specific binding; compound at 0.1 μM; 0.25 nM [3H]Prazosin
T1 construct: rat adrenergic α1A receptor obtained from Wistar Rat submaxillary glands; from tissue; host or cells: Wistar rat submaxillary glands
T1 sequence (P43140 1-466): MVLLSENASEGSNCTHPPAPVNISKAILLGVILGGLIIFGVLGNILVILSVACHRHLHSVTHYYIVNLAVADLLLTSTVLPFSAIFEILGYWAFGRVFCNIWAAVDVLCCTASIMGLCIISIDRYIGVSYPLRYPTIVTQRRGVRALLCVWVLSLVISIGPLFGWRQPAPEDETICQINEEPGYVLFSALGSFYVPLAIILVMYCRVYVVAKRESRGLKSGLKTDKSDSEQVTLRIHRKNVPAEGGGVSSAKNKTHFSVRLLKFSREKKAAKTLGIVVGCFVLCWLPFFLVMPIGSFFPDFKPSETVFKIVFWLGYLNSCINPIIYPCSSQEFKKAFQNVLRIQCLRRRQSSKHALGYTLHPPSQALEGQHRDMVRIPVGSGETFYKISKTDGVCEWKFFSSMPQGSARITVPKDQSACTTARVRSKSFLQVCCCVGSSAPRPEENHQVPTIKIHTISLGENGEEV
How it was run: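 Wistar rat submaxillary gland receptor in 50 mM Tris-HCl pH 7.4 with 0.5 mM EDTA, incubated with compound and 0.25 nM [3H]Prazosin for 60 min at 25 °C.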

Row | Structure (SMILES) | inhibition at 0.1 µM [%]
1 | Cc1csc(-c2cscc2-n2c3c(c4cc(C)ccc42)CN(C)CC3)c1 [Compound 50] | 65
2 | Cc1ccc2c(c1)c1c(n2-c2cccc(-c3cn[nH]c3)c2)CCN(C)C1 [Compound No. 70, 5-(3-(1H-pyrazol-4-yl)phenyl)-2,8-dimethyl-2,3,4,5-tetrahydro-1H-pyrido[4,3-b]indole] | 5
3 | CC(=O)Nc1ccc(-c2ccc(-n3c4c(c5cc(C)ccc53)CN(C)CC4)nc2)cn1 [Compound No. 139, N-(6′-(2,8-dimethyl-3,4-dihydro-1H-pyrido[4,3-b]indol-5(2H)-yl)-3,3′-bipyridin-6-yl)acetamide] | 22
4 | Cc1ccc2c(c1)c1c(n2-c2ccc(-c3ccnn3C)cn2)CCN(C)C1 [Compound No. 146, 2,8-dimethyl-5-(5-(1-methyl-1H-pyrazol-5-yl)pyridin-2-yl)-2,3,4,5-tetrahydro-1H-pyrido[4,3-b]indole] | 33
5 | CNC(=O)c1cc(-n2c3c(c4cc(C)ccc42)CN(C)CC3)cs1 [Compound No. 78] | 16
6 | Cc1ccc2c(c1)c1c(n2-c2cscc2-c2ccc(F)nc2)CCN(C)C1 [Compound 35] | 78
7 | Cc1cc(C)c2c(c1)c1c(n2-c2cccc3ncccc23)CCN(C)C1 [Compound 47] | -1
8 | Cc1ccc2c(c1)c1c(n2-c2cscc2-c2ccc(O)nc2)CCN(C)C1 [Compound 49] | 15
9 | Cc1ccc2c(c1)c1c(n2-c2cscc2-c2cncc3ccccc23)CCN(C)C1 [Compound 34] | 4
10 | Cc1ccc2c(c1)c1c(n2-c2ccccc2-c2ccc(C)nc2)CCN(C)C1 [Compound 59, 2,8-dimethyl-5-(2-(6-methylpyridin-3-yl)phenyl)-2,3,4,5-tetrahydro-1H-pyrido[4,3-b]indole] | 42
11 | Cc1ccc2c(c1)c1c(n2-c2cscc2-c2ccnn2C)CCN(C)C1 [Compound No. 150] | 36
12 | Cc1ccc2c(c1)c1c(n2-c2cccc(-c3ccc(F)cc3)c2)CCN(C)C1 [Compound 61, 5-(4′-fluorobiphenyl-3-yl)-2,8-dimethyl-2,3,4,5-tetrahydro-1H-pyrido[4,3-b]indole] | -5
13 | Cc1csc(-c2ccc(-n3c4c(c5cc(C)ccc53)CN(C)CC4)nc2)c1 [Compound No. 144, 2,8-dimethyl-5-(5-(4-methylthiophen-2-yl)pyridin-2-yl)-2,3,4,5-tetrahydro-1H-pyrido[4,3-b]indole] | 27
14 | CC(=O)Nc1ccc(-c2ccccc2-n2c3c(c4cc(C)ccc42)CN(C)CC3)cn1 [Compound No. 83, N-(5-(2-(2,8-dimethyl-3,4-dihydro-1H-pyrido[4,3-b]indol-5(2H)-yl)phenyl)pyridin-2-yl)acetamide] | 23
15 | Cc1ccc2c(c1)c1c(n2-c2ccc3ccncc3c2)CCN(C)C1 [Compound No. 74, 5-(isoquinolin-7-yl)-2,8-dimethyl-2,3,4,5-tetrahydro-1H-pyrido[4,3-b]indole] | 52
16 | Cc1ccc2c(c1)c1c(n2-c2ccc(-c3ccc(C)nc3)cn2)CCN(C)C1 [Compound No. 156, 2,8-dimethyl-5-(6′-methyl-3,3′-bipyridin-6-yl)-2,3,4,5-tetrahydro-1H-pyrido[4,3-b]indole] | 39
17 | Cc1ccc2c(c1)c1c(n2-c2cccc(-c3cnc(N(C)C)nc3)c2)CCN(C)C1 [Compound 42, 5-(3-(2,8-dimethyl-3,4-dihydro-1H-pyrido[4,3-b]indol-5(2H)-yl)phenyl)-N,N-dimethylpyrimidin-2-amine] | 9

Row | Structure (SMILES) | inhibition at 0.1 µM [%]
18 | Cc1ccc2c(c1)c1c(n2-c2cccc(-c3ccc(C)s3)c2)CCN(C)C1 [Compound No. 64, 2,8-dimethyl-5-(3-(5-methylthiophen-2-yl)phenyl)-2,3,4,5-tetrahydro-1H-pyrido[4,3-b]indole] | -8
19 | Cc1ccc2c(c1)c1c(n2-c2ccccc2-c2ccc(F)nc2)CCN(C)C1 [Compound No. 84, 5-(2-(6-fluoropyridin-3-yl)phenyl)-2,8-dimethyl-2,3,4,5-tetrahydro-1H-pyrido[4,3-b]indole] | 61
20 | Cc1ccc2c(c1)c1c(n2-c2cccc(-c3cc4ccccc4s3)c2)CCN(C)C1 [Compound 51, 5-(3-(benzo[b]thiophen-2-yl)phenyl)-2,8-dimethyl-2,3,4,5-tetrahydro-1H-pyrido[4,3-b]indole] | -6
21 | Cc1ccc2c(c1)c1c(n2-c2ccc(-c3cnn(C)c3)cn2)CCN(C)C1 [Compound No. 134, 2,8-dimethyl-5-(5-(1-methyl-1H-pyrazol-4-yl)pyridin-2-yl)-2,3,4,5-tetrahydro-1H-pyrido[4,3-b]indole] | -2
22 | Cc1ccc2c(c1)c1c(n2-c2ccc(-c3cncc4ccccc34)cn2)CCN(C)C1 [Compound No. 135, 5-(5-(isoquinolin-4-yl)pyridin-2-yl)-2,8-dimethyl-2,3,4,5-tetrahydro-1H-pyrido[4,3-b]indole] | 36
23 | Cc1ccc2c(c1)c1c(n2-c2ccc(-c3cccc4[nH]ncc34)cn2)CCN(C)C1 [Compound No. 147, 5-(5-(1H-indazol-4-yl)pyridin-2-yl)-2,8-dimethyl-2,3,4,5-tetrahydro-1H-pyrido[4,3-b]indole] | 37
24 | Cc1ccc2c(c1)c1c(n2-c2cscc2-c2cnc(N(C)C)nc2)CCN(C)C1 [Compound 40] | 43
25 | Cc1ccc2c(c1)c1c(n2-c2cccc(-c3ccc(F)nc3)c2)CCN(C)C1 [Compound 44, 5-(3-(6-fluoropyridin-3-yl)phenyl)-2,8-dimethyl-2,3,4,5-tetrahydro-1H-pyrido[4,3-b]indole] | 15
26 | Cc1ccc2c(c1)c1c(n2-c2cccc(-c3ccc(S(N)(=O)=O)cc3)c2)CCN(C)C1 [Compound No. 158, 3′-(2,8-dimethyl-3,4-dihydro-1H-pyrido[4,3-b]indol-5(2H)-yl)biphenyl-4-sulfonamide] | 4
27 | Cc1ccc2c(c1)c1c(n2-c2ccc(-c3ccc(F)nc3)cn2)CCN(C)C1 [Compound No. 142, 5-(6′-fluoro-3,3′-bipyridin-6-yl)-2,8-dimethyl-2,3,4,5-tetrahydro-1H-pyrido[4,3-b]indole] | 46
28 | Cc1ccc2c(c1)c1c(n2-c2ccc(-c3cccc4ccccc34)cn2)CCN(C)C1 [Compound No. 141, 2,8-dimethyl-5-(5-(naphthalen-1-yl)pyridin-2-yl)-2,3,4,5-tetrahydro-1H-pyrido[4,3-b]indole] | 33
29 | Cc1ccc2c(c1)c1c(n2-c2ccc(-c3ccc4c(ccn4C)c3)cn2)CCN(C)C1 [Compound No. 136, 2,8-dimethyl-5-(5-(1-methyl-1H-indol-5-yl)pyridin-2-yl)-2,3,4,5-tetrahydro-1H-pyrido[4,3-b]indole] | 20
30 | Cc1ccc2c(c1)c1c(n2-c2cscc2-c2sccc2C)CCN(C)C1 [Compound 39] | 31
31 | Cc1ccc2c(c1)c1c(n2-c2ccc(-c3cnc(N(C)C)nc3)cn2)CCN(C)C1 [Compound No. 138, 5-(6-(2,8-dimethyl-3,4-dihydro-1H-pyrido[4,3-b]indol-5(2H)-yl)pyridin-3-yl)-N,N-dimethylpyrimidin-2-amine] | 32
32 | Cc1cc(C)c2c(c1)c1c(n2-c2ccc3ncccc3c2)CCN(C)C1 [Compound 48] | -6
33 | Cc1ccc2c(c1)c1c(n2-c2ccc(-c3sccc3C)cn2)CCN(C)C1 [Compound No. 148, 2,8-dimethyl-5-(5-(3-methylthiophen-2-yl)pyridin-2-yl)-2,3,4,5-tetrahydro-1H-pyrido[4,3-b]indole] | 20

target: T2, human recombinant adrenergic α2A receptor (Homo sapiens, UniProt P08913); test: Adrenergic α2A radioligand binding ([3H]MK-912); details: read-out: Adrenergic (0.1 μM) a2A, percent inhibition of specific binding; compound at 0.1 μM; 1 nM [3H]MK-912
T2 construct: expressed in transfected cells; host or cells: insect Sf9 cells
T2 sequence (P08913 1-465): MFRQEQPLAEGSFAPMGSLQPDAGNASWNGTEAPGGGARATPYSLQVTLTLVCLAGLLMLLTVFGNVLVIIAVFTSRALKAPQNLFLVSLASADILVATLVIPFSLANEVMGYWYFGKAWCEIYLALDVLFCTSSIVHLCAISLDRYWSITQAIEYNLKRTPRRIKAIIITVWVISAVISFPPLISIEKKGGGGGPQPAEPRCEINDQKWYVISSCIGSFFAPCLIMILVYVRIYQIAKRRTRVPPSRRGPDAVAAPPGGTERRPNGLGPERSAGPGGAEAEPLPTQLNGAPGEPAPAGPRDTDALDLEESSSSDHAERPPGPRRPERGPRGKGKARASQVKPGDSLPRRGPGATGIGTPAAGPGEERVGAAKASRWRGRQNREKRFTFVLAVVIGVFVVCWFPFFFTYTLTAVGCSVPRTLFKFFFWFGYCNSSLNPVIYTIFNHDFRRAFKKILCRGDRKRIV
Description: To evaluate in radioligand binding assays the activity of compounds of the invention, human recombinant adrenergic α2A receptor expressed in insect Sf9 cells (Uhlen, S. et al, J. Pharmacol. Exp. Ther. 271:1558, 1994) in a modified Tris-HCl buffer (50 mM Tris-HCl, pH 7.4, 12.5 mM MgCl2, 2 mM EDTA) was used. Compounds of invention were incubated with 1 nM [^3H]MK-912 for 60 min at 25° C. MK-912 is (2S-trans)-1,3,4,5′,6,6′,7,12b-octahydro-1′,3′-dimethyl-spiro[2H-benzofuro[2,3-a]quinolizine-2,4′(1′H)-pyrimidin]-2′(3′H)-one hydrochloride Non-specific binding was estimated in the presence of 10 μM WB-4101 (2-(2,6-Dimethoxyphenoxyethyl)aminomethyl-1,4-benzodioxane hydrochloride). Receptor proteins were filtered and washed, the filters were then counted to determine [^3H]MK-912 specifically bound. […] Compounds of the invention were tested in this biochemical assay and percent inhibition of specific binding was determined.

Row | Structure (SMILES) | inhibition at 0.1 µM [%]
34 | Cc1csc(-c2cscc2-n2c3c(c4cc(C)ccc42)CN(C)CC3)c1 [Compound 50] | 93
